# Data as given in patent US20240166669A1, “QUINAZOLINE AMINE DERIVATIVES AS KRAS INHIBITORS” (Nikang Therapeutics, Inc., priority 2021, published 2024).
# Biological target: T1, K-Ras G12D (Homo sapiens, UniProt P01116, G12D)
# T1 construct: AGS (Cobioer, CBP60476) cell lines which harbor KRAS G12D mutation; host or cells: AGS
# Assay: p-ERK Cellular 2-Plate Assay (Biological Example 2)
# Type: cell-based
# Settings: AGS cells (KRAS G12D), 3 h treatment, AlphaLISA p-ERK1/2, 2-plate; Biological Example 2 (unmarked values); read-out: AGS PERK EC50
# Procedure: The ability of the compound of Formula (IIA′), (II′), or (II) or a pharmaceutically acceptable salt thereof (test compound) to inhibit K-Ras G12D activity was tested using AGS (Cobioer, CBP60476) cell lines which harbor KRAS G12D mutation as described below.
# AGS (Cobioer, CBP60476) were seeded in 384-well plates and cultured overnight (10.000 cells per well 40 μl total volume). The following morning, cells were treated with test compound, with staring concentration at 10 μM and 3-fold dilution down to 0.5 nM for 3 h at 37° C., DMSO treatment served as control. p-ERK was then measured using AlphaLISA SureFire Ultra p-ERK1/2 (Thr202/Tyr204) Assay Kit (Perkin Elmer, cat #ALSU-PERK) following the manufacturer's instruction as follows.
# Briefly, the culture medium was removed and 20 μl 1× lysis buffer was added to each well, followed by 30 minutes incubation on a plate shaker at room temperature. Then 10 μl of lysate was transferred to a white 384-well plate. Acceptor mixture was prepared according to manufacturer's instruction. 5 μl acceptor mixture was added to the cell lysate and the plate was wrapped with foil, spun at 500 rpm for 10 s, and incubated at RT for 60 min. Donor mixture was prepared under subdued light. 5 μl donor mixture was added to the cell lysate and the plate was spun at 500 rpm for 10s and incubated at RT for another 60 min. in the dark. Signal was then measured on a EnVision 2105 multimode plate reader. Percentage inhibition was calculated with DMSO treatment as 100% of signal, and IC50 was calculated by XLfit 5.5.x.
# T1 sequence (P01116 1-188 isoform P01116-2 G12D): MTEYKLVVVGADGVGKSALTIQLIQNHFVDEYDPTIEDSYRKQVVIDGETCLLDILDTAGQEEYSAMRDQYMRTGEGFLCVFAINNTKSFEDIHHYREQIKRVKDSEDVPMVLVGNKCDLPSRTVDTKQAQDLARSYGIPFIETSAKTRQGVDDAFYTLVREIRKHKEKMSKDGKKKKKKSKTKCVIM
row,EC50,Compound
1,3.7 nM,"C#Cc1cccc2cc(O)cc(-c3ncc4c(N5CC6CCC(C5)N6)nc(OCC56CCCN5Cc5c(F)cccc56)nc4c3F)c12 (stereo not drawn) [Example 24, 4-(4-(3,8-diazabicyclo[3.2.1]octan-3-yl)-8-fluoro-2-((6-fluoro-2,3-dihydro-1H-pyrrolo[2,1-a]isoindol-9b(5H)-yl)-methoxy)pyrido[4,3-d]pyrimidin-7-yl)-5-ethynylnaphthalen-2-ol]"
2,3 nM,"C#Cc1cccc2cc(O)cc(-c3ncc4c(N5CC6CCC(C5)N6)nc(OCC56CCCN5Cc5cc(F)ccc56)nc4c3F)c12 (stereo not drawn) [Example 25, 4-(4-(3,8-diazabicyclo[3.2.1]octan-3-yl)-8-fluoro-2-((7-fluoro-2,3-dihydro-1H-pyrrolo[2,1-a]isoindol-9b(5H)-yl)-methoxy)pyrido[4,3-d]pyrimidin-7-yl)-5-ethynylnaphthalen-2-ol]"
3,7 nM,"C#Cc1cccc2cc(O)cc(-c3ncc4c(N5CC6CCC(C5)N6)nc(OCC56CCCN5Cc5ccc(F)cc56)nc4c3F)c12 (stereo not drawn) [Example 26, 4-(4-(3,8-diazabicyclo[3.2.1]octan-3-yl)-8-fluoro-2-((8-fluoro-2,3-dihydro-1H-pyrrolo[2,1-a]isoindol-9b(5H)-yl)-methoxy)pyrido[4,3-d]pyrimidin-7-yl)-5-ethynylnaphthalen-2-ol]"
4,20 nM,"C#Cc1cccc2cc(O)cc(-c3ncc4c(N5CC6CCC(C5)N6)nc(OCC56CCCN5Cc5cccc(F)c56)nc4c3F)c12 (stereo not drawn) [Example 27, 4-(4-(3,8-diazabicyclo[3.2.1]octan-3-yl)-8-fluoro-2-((9-fluoro-2,3-dihydro-1H-pyrrolo[2,1-a]isoindol-9b(5H)-yl)-methoxy)pyrido[4,3-d]pyrimidin-7-yl)-5-ethynylnaphthalen-2-ol]"
5,46 nM,"C#Cc1cccc2cc(O)cc(-c3ncc4c(N5CC6CCC(C5)N6)nc(OCC56CCCN5Cc5cccnc56)nc4c3F)c12 (stereo not drawn) [Example 28, 4-(4-(3,8-diazabicyclo[3.2.1]octan-3-yl)-2-((8,9-dihydro-5H-pyrido[2,3-a]-pyrrolizin-9a(7H)-yl)methoxy)-8-fluoropyrido[4,3-d]pyrimidin-7-yl)-5-ethynylnaphthalen-2-ol]"
6,2 nM,"C#Cc1cccc2cc(O)cc(-c3ncc4c(N5C[C@H]6CC[C@@H](C5)N6)nc(OCC56CCCN5Cc5c(OC)cccc56)nc4c3F)c12 (stereo partly drawn) [Example 29, 4-(4-((1R,5S)-3,8-diazabicyclo-[3.2.1]octan-3-yl)-8-fluoro-2-((6-methoxy-2,3-dihydro-1H-pyrrolo[2,1-a]-isoindol-9b(5H)-yl)methoxy)-pyrido[4,3-d]-pyrimidin-7-yl)-5-ethynylnaphthalen-2-ol]"
7,4 nM,"C#Cc1cccc2cc(O)cc(-c3ncc4c(N5C[C@H]6CC[C@@H](C5)N6)nc(OCC56CCCN5Cc5cc(OC)ccc56)nc4c3F)c12 (stereo partly drawn) [Example 30, 4-(4-((1R,5S)-3,8-diazabicyclo-[3.2.1]octan-3-yl)-8-fluoro-2-((7-methoxy-2,3-dihydro-1H-pyrrolo[2,1-a]isoindol-9b(5H)-yl)methoxy)-pyrido[4,3-d]-pyrimidin-7-yl)-5-ethynylnaphthalen-2-ol]"
8,4.1 nM,"C#Cc1cccc2cc(O)cc(-c3ncc4c(N5CC6CCC(C5)N6)nc(OCC56CCCN5Cc5cnccc56)nc4c3F)c12 (stereo not drawn) [Example 31, 4-(4-(3,8-diazabicyclo[3.2.1]octan-3-yl)-2-((6,7-dihydro-5H-pyrido[4,3-a]pyrrolizin-4b(9H)-yl)methoxy)-8-fluoropyrido[4,3-d]pyrimidin-7-yl)-5-ethynylnaphthalen-2-ol]"
9,6 nM,"C#Cc1cccc2cc(O)cc(-c3ncc4c(N5CC6CCC(C5)N6)nc(OCC56CCCN5Cc5ccncc56)nc4c3F)c12 (stereo not drawn) [Example 32, 4-(4-(3,8-diazabicyclo[3.2.1]octan-3-yl)-2-((8,9-dihydro-5H-pyrido[3,4-a]pyrrolizin-9a(7H)-yl)methoxy)-8-fluoropyrido[4,3-d]pyrimidin-7-yl)-5-ethynylnaphthalen-2-ol]"
10,1.4 nM,"C#Cc1cccc2cc(O)cc(-c3ncc4c(N5C[C@H]6CC[C@@H](C5)N6)nc(OCC56CCCN5Cc5c(COC)cccc56)nc4c3F)c12 (stereo partly drawn) [Example 33, 4-(4-((1R,5S)-3,8-diazabicyclo-[3.2.1]octan-3-yl)-8-fluoro-2-((6-(methoxymethyl)-2,3-dihydro-1H-pyrrolo[2,1-a]isoindol-9b(5H)-yl)methoxy)-pyrido[4,3-d]pyrimidin-7-yl)-5-ethynylnaphthalen-2-ol]"
11,25 nM,"C#Cc1cccc2cc(O)cc(-c3ncc4c(N5C[C@H]6CC[C@@H](C5)N6)nc(OCC56CCCN5Cc5c(C(F)(F)F)cccc56)nc4c3F)c12 (stereo partly drawn) [Example 34, 4-(4-((1R,5S)-3,8-diazabicyclo[3.2.1]octan-3-yl)-8-fluoro-2-((6-(trifluoromethyl)-2,3-dihydro-1H-pyrrolo[2,1-a]isoindol-9b(5H)-yl)methoxy)pyrido-[4,3-d]pyrimidin-7-yl)-5-ethynylnaphthalen-2-ol]"

# Further lines, the compound ahead of its results:
row,Compound,EC50
1,"C#Cc1cccc2cc(O)cc(-c3ncc4c(N5CC6CC(=C)C(C5)N6)nc(OCC56CCCN5CCC6)nc4c3F)c12 (stereo not drawn) [Example 10, 5-ethynyl-4-(8-fluoro-4-(6-methylene-3,8-diazabicyclo[3.2.1]octan-3-yl)-2-((tetrahydro-1H-pyrrolizin-7a(5H)-yl)methoxy)pyrido[4,3-d]pyrimidin-7-yl)naphthalen-2-ol]",128 nM
2,"C#Cc1c(F)ccc2cccc(-c3ncc4c(N5C[C@H]6CC[C@@H](C5)N6)nc(OCC56CCCN5CC(=C)C6)nc4c3F)c12 (stereo partly drawn) [Example 11, 4-((1R,5S)-3,8-diazabicyclo[3.2.1]octan-3-yl)-7-(8-ethynyl-7-fluoronaphthalen-1-yl)-8-fluoro-2-((2-methylenetetrahydro-TH-pyrrolizin-7a(5H)-yl)methoxy)pyrido[4,3-d]pyrimidine]",7 nM
3,"C#Cc1c(F)ccc2cccc(-c3ncc4c(N5CC6CCC(C5)N6)nc(OCC56CCCN5Cc5ccccc56)nc4c3F)c12 (stereo not drawn) [Example 12, 9b-(((4-(3,8-diazabicyclo[3.2.1]octan-3-yl)-7-(8-ethynyl-7-fluoronaphthalen-1-yl)-8-fluoropyrido[4,3-d]pyrimidin-2-yl)oxy)methyl)-2,3,5,9b-tetrahydro-1H-pyrrolo[2,1-a]isoindole]",105 nM
4,C#Cc1cccc2cc(O)cc(-c3ncc4c(N5CC6CCC(C5)N6)nc(OCC56CCCN5CC(=CC)C6)nc4c3F)c12 (stereo not drawn) [Example 15],0.1 nM
5,"C=C1CN2CCCC2(COc2nc(N3C[C@H]4CC[C@@H](C3)N4)c3cnc(-c4cc(O)cc5cccc(F)c45)c(F)c3n2)C1 (stereo partly drawn) [Example 22, 4-(4-((1R,5S)-3,8-diazabicyclo-[3.2.1]octan-3-yl)-8-fluoro-2-((2-methylenetetrahydro-1H-pyrrolizin-7a(5H)-yl)methoxy)pyrido[4,3-d]-pyrimidin-7-yl)-5-fluoronaphthalen-2-ol]",1 nM
6,"C#Cc1cccc2cc(O)cc(-c3ncc4c(N5C[C@H]6CC[C@@H](C5)N6)nc(OCC56CCCN5Cc5c6cnn5C)nc4c3F)c12 (stereo partly drawn) [Example 36, 4-(4-((1R,5S)-3,8-diazabicyclo[3.2.1]octan-3-yl)-8-fluoro-2-((1-methyl-1,5,6,8-tetrahydropyrazolo[4,3-a]pyrrolizin-3b(4H)-yl)methoxy)pyrido[4,3-d]pyrimidin-7-yl)-5-ethynylnaphthalen-2-ol]",5.2 nM
7,"C#Cc1cccc2cc(O)cc(-c3ncc4c(N5C[C@H]6CC[C@@H](C5)N6)nc(OC[C@@]56CC7COc8ccccc8C7N5C[C@H](F)C6)nc4c3F)c12 (stereo partly drawn) [Example 40, 4-(4-((1R,5S)-3,8-diazabicyclo[3.2.1]octan-3-yl)-8-fluoro-2-(((9R)-9-fluoro-6a,9,10,11a-tetrahydro-6H,7H-chromeno[3,4-b]pyrrolizin-7a(8H)-yl)methoxy)pyrido[4,3-d]pyrimidin-7-yl)-5-ethynylnaphthalen-2-ol]",3.6 nM
8,"C#Cc1c(F)ccc2cc(O)cc(-c3ncc4c(N5C[C@H]6CC[C@@H](C5)N6)nc(OC[C@@]56CC7COc8ccccc8C7N5C[C@@H](F)C6)nc4c3F)c12 (stereo partly drawn) [Example 41, 4-(4-((1R,5S)-3,8-diazabicyclo[3.2.1]octan-3-yl)-8-fluoro-2-(((9S)-9-fluoro-6a,9,10,11a-tetrahydro-6H,7H-chromeno[3,4-b]pyrrolizin-7a(8H)-yl)methoxy)pyrido[4,3-d]pyrimidin-7-yl)-5-ethynyl-6-fluoronaphthalen-2-ol]",> 100 nM
9,"C#Cc1c(F)ccc2cccc(-c3ncc4c(N5C[C@H]6CC[C@@H](C5)N6)nc(OCC56CCCN5CC(=CC)C6)nc4c3F)c12 (stereo partly drawn) [Example 48, 4-((1R,5S)-3,8-diazabicyclo[3.2.1]octan-3-yl)-2-((2-ethylidenetetrahydro-1H-pyrrolizin-7a(5H)-yl)methoxy)-7-(8-ethynyl-7-fluoronaphthalen-1-yl)-8-fluoropyrido[4,3-d]pyrimidine]",33 nM
10,"C#Cc1cccc2cc(O)cc(-c3ncc4c(N5CC6CC7(CC7)C(C5)N6)nc(OCC56CCCN5CCC6)nc4c3F)c12 (stereo not drawn) [Example 53, 5-ethynyl-4-(8-fluoro-4-(3,8-diazaspiro[bicyclo[3.2.1]octane-6,1′-cyclopropan]-3-yl)-2-((tetrahydro-1H-pyrrolizin-7a(5H)-yl)methoxy)pyrido[4,3-d]pyrimidin-7-yl)naphthalen-2-ol]",266 nM
